# Test results taken from article PMC6110922, “Inhibition of Chloride Intracellular Channel 1 (CLIC1) as Biguanide Class-Effect to Impair Human Glioblastoma Stem Cell Viability” (Frontiers in Pharmacology, 2018).
# Where a name gives a salt, the structure may show the parent alone.
# Target: T1, chloride intracellular channel 1 (CLIC1) (Homo sapiens, UniProt O00299)
# T1 construct: endogenous channel in GBM2 and GBM4 glioblastoma stem cells
# Test: perforated-patch whole-cell patch clamp, CLIC1 (IAA94-sensitive) current
# Format: cell-based
smiles,measurement,value
"CN(C)C(=N)NC(=N)N [metformin, 1,1-dimethylbiguanide hydrochloride]","perforated-patch whole-cell patch clamp, CLIC1 (IAA94-sensitive) current",10 mM
CC1(C)N=C(N)N=C(N)N1c1ccc(Cl)cc1 [cycloguanil],"perforated-patch whole-cell patch clamp, CLIC1 (IAA94-sensitive) current",0.5 mM
